Converted amounts (≈) assume the structure as drawn.
Molecular target: KRAS (G12C)::SOS1 protein-protein interaction (Homo sapiens (Human), UniProt P01116, C118S/C51S/C80L/G12C)
Experiment: KRAS::SOS1 AlphaScreen binding assay (KRAS G12C)
Conditions: GDP
Excerpt: (§1) This assay can be used to examine the potency with which compounds according to the invention binding to (mutated) KRAS inhibit the protein-protein interaction between SOS1 and (mutated) KRAS e.g. KRAS G12C, KRAS G12D. […] Low IC50 values in this assay setting are indicative of strong inhibition of protein-protein interaction between SOS1 and KRAS:
(§2) These assays measure the inhibitory effect of compounds on KRAS mutant protein-protein interactions using the Alpha Screen technology by Perkin Elmer.
(§3) The following (mutant) enzyme forms of KRAS and interacting proteins are used in these assays at the given concentrations:
KRAS (G12C) 1-169, N-terminal 6His-tag for purification, cleaved off, C-terminal avi-tag, biotinylated, mutations: C51S, C80L, C118S (in house); final assay concentration 7.5 nM and SOS1 564-1049, N-terminal 229 GST-tag, TEV cleavage site (Viva Biotech Ltd); final assay concentration 5 nM;
(§4) Test compounds dissolved in DMSO are dispensed onto assay plates (Proxiplate 384 PLUS, white, PerkinElmer; 6008289) using an Access Labcyte Workstation with the Labcyte Echo 55x. For the chosen highest assay concentration of 100 μM, 150 nL of compound solution are transferred from a 10 mM DMSO compound stock solution. A series of eleven fivefold dilutions per compound are transferred to the assay plate, compound dilutions are tested in duplicates. DMSO are added as backfill to a total volume of 150 nL.
(§5) The assays run on a fully automated robotic system in a darkened room below 100 Lux. To 150 nl of compound dilution 10 μl of a mix including KRAS mutant protein, SOS1 (final assay concentrations see above) and GDP nucleotide (Sigma G7127; final assay concentration 10 μM) in assay buffer (1×PBS, 0.1% BSA, 0.05% Tween 20) are added into columns 1-24.
(§6) After 30 minutes incubation time 5 μl of Alpha Screen bead mix in assay buffer are added into columns 1-23. Bead mix consists of AlphaLISA Glutathione Acceptor Beads (PerkinElmer, Cat No AL109) and AlphaScreen Streptavidin Donor Beads (PerkinElmer Cat No 6760002) in assay buffer at a final assay concentration of 10 μg/mL each.
(§7) Plates are kept at room temperature in a darkened incubator. After an additional 60 minutes incubation time the signal is measured in a PerkinElmer Envision HTS Multilabel Reader using the AlphaScreen specs from PerkinElmer.
(§8) Each plate contains up to 16 wells of a negative control depending on the dilution procedure (platewise or serial) (DMSO instead of test compound; with KRAS mutant::SOS1 GOP mix and bead mix; column 23) and 16 wells of a positive control (DMSO instead of test compound; with KRAS mutant::SOS1 GOP mix w/o bead mix; column 24).
(§9) As internal control known inhibitors of KRAS mutant::SOS1 interaction can be measured on each compound plate.
(§10) IC50 values are calculated and analyzed with Boehringer Ingelheim's MEGALAB C50 application using a 4 parametric logistic model.
(§11) Tables of example compounds disclosed herein contain IC50 values determined using the above assays (see Table 43).

Sequence of KRAS (G12C)::SOS1 protein-protein interaction (P01116 other isoform, or with tags, fused parts or gaps G12C/C51S/C80L/C118S): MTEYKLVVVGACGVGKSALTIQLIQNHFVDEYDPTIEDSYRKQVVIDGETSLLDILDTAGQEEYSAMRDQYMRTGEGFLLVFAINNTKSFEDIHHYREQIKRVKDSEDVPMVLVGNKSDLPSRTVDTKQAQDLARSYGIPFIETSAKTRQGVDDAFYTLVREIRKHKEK

For `C[C@H](Oc1nc(-c2onc3c2CCC[C@@]32CCCc3sc(N)c(C#N)c32)nc2c1n(C)c(=O)n2C1COC1)[C@@H]1CCCN1C` [I-24], which IC50 is on record?
The IC50 was 2 nM.

For `CO[C@H]1C[C@@H]([C@H](C)Oc2nc(-c3onc4c3CCC[C@@]43CCCc4sc(N)c(C#N)c43)nc3c2n(C)c(=O)n3[C@@H]2CCOC2)N(C)C1` [I-2], which IC50 is on record?
The IC50 was 1 nM.

With `C[C@H](Oc1nc(-c2onc3c2CCC[C@@]32CCCc3sc(N)c(C#N)c32)nc2c1N(C)C(=O)CN2[C@@H]1CCOC1)[C@@H]1CCCN1C` [I-37] as the compound, how does the IC50 read?
Its IC50 is 7 nM.

For `C[C@H](Oc1nc(-c2onc3c2CCC[C@@]32CCCc3sc(N)c(C#N)c32)nc2c1n(C)c(=O)n2[C@H]1CCCOC1)[C@@H]1CCCN1C` [I-11], which IC50 is on record?
The IC50 was 4 nM.

With `C[C@H](Oc1nc(-c2onc3c2CCC[C@@]32CCCc3sc(N)c(C#N)c32)nc2c1ncn2[C@@H]1CCOC1)[C@@H]1CCCN1C` [I-38] as the compound, how does the IC50 read?
Its IC50 is 2 nM.

For `CO[C@H]1CCN(C)[C@@H]1[C@H](C)Oc1nc(-c2onc3c2CCC[C@@]32CCCc3sc(N)c(C#N)c32)nc2c1n(C)c(=O)n2[C@@H]1CCCOC1` [I-6], which IC50 is on record?
Its IC50 is 2 nM.

Molecular target: KRAS (G12D)::SOS1 protein-protein interaction (Homo sapiens (Human), UniProt P01116, G12D)
Sequence (P01116 other isoform, or with tags, fused parts or gaps G12D): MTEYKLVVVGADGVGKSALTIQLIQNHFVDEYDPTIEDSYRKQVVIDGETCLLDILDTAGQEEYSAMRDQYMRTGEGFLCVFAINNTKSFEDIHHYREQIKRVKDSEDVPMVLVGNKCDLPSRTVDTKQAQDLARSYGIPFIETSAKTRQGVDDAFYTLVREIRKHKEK
Experiment: KRAS::SOS1 AlphaScreen binding assay (KRAS G12D)
Conditions: GDP
Excerpt: as §1, §2, §3
KRAS (G12D) 1-169, N-terminal 6His-tag, C-terminal avi-tag (Xtal BioStructures, Inc.); final assay concentration 10 nM and SOS1 564-1049, N-terminal 229 GST-tag, TEV cleavage site (Viva Biotech Ltd); final assay concentration 5 nM;
as §4, §5, §6, §7, §8, §9, §10, §11

With `C[C@H](Oc1nc(-c2onc3c2CCC[C@@]32CCCc3sc(N)c(C#N)c32)nc2c1n(C)c(=O)n2C1COC1)[C@@H]1CCCN1C` [I-24] as the compound, how does the IC50 read?
Its IC50 is 3 nM.

With `CO[C@H]1C[C@@H]([C@H](C)Oc2nc(-c3onc4c3CCC[C@@]43CCCc4sc(N)c(C#N)c43)nc3c2n(C)c(=O)n3[C@@H]2CCOC2)N(C)C1` [I-2] as the compound, how does the IC50 read?
The IC50 was 2 nM.

For `C[C@H](Oc1nc(-c2onc3c2CCC[C@@]32CCCc3sc(N)c(C#N)c32)nc2c1N(C)C(=O)CN2[C@@H]1CCOC1)[C@@H]1CCCN1C` [I-37], which IC50 is on record?
The IC50 was 8 nM.

Which IC50 does the source give for `C[C@H](Oc1nc(-c2onc3c2CCC[C@@]32CCCc3sc(N)c(C#N)c32)nc2c1n(C)c(=O)n2[C@H]1CCCOC1)[C@@H]1CCCN1C` [I-11] here?
The IC50 was 6 nM.

With `C[C@H](Oc1nc(-c2onc3c2CCC[C@@]32CCCc3sc(N)c(C#N)c32)nc2c1ncn2[C@@H]1CCOC1)[C@@H]1CCCN1C` [I-38] as the compound, how does the IC50 read?
Its IC50 is 2 nM.

With `CO[C@H]1CCN(C)[C@@H]1[C@H](C)Oc1nc(-c2onc3c2CCC[C@@]32CCCc3sc(N)c(C#N)c32)nc2c1n(C)c(=O)n2[C@@H]1CCCOC1` [I-6] as the compound, how does the IC50 read?
The IC50 was 2 nM.

System: MKN1 cells
Experiment: MKN1 CTG proliferation assay (120 h) (gastric cancer, wt amplified)
Assay type: cell-based
Conditions: Homo sapiens, MKN-1
Description: MKN1 cells (JCRB0252) are dispensed into black 384-well plates, flat and clear bottom (Greiner, PNr. 781091) at a density of 200 cells per well in 60 μl RPMI-1640 ATCC-Formulation (Gibco #A10491)+10% FCS (fetal calf serum, HyClone, SH30084.03). Cells are incubated overnight at 37° C. in a humidified tissue culture incubator at 5% CO2. Compounds (10 mM stock in DMSO) are added at logarithmic dose series using the ECHO acoustic liquid handler system (Beckman Coulter), normalizing for added DMSO and including DMSO controls. All compound treatments are performed in technical duplicates. For the TO time point measurement, untreated cells are analyzed at the time of compound addition. Plates are incubated for 120 h, and cell viability is measured using CellTiter-Glo luminescent cell viability reagent (Promega product code G7570). Viability (stated as percent of control) is defined as relative luminescence units RLU of each well divided by the RLU of cells in DMSO controls. IC50 values are determined from viability measurements by non-linear regression using a four-parameter model.
IC50 values of representative compounds according to the invention measured with these assays in the indicated cell lines are presented in Table 46.

For `C[C@H](Oc1nc(-c2onc3c2CCC[C@@]32CCCc3sc(N)c(C#N)c32)nc2c1n(C)c(=O)n2C1COC1)[C@@H]1CCCN1C` [I-24], which IC50 is on record?
The IC50 was 355 nM.

For `CO[C@H]1C[C@@H]([C@H](C)Oc2nc(-c3onc4c3CCC[C@@]43CCCc4sc(N)c(C#N)c43)nc3c2n(C)c(=O)n3[C@@H]2CCOC2)N(C)C1` [I-2], which IC50 is on record?
The IC50 was 95 nM.

With `C[C@H](Oc1nc(-c2onc3c2CCC[C@@]32CCCc3sc(N)c(C#N)c32)nc2c1N(C)C(=O)CN2[C@@H]1CCOC1)[C@@H]1CCCN1C` [I-37] as the compound, how does the IC50 read?
The IC50 was 319 nM.

With `C[C@H](Oc1nc(-c2onc3c2CCC[C@@]32CCCc3sc(N)c(C#N)c32)nc2c1n(C)c(=O)n2[C@H]1CCCOC1)[C@@H]1CCCN1C` [I-11] as the compound, how does the IC50 read?
The IC50 was 334 nM.

With `C[C@H](Oc1nc(-c2onc3c2CCC[C@@]32CCCc3sc(N)c(C#N)c32)nc2c1ncn2[C@@H]1CCOC1)[C@@H]1CCCN1C` [I-38] as the compound, how does the IC50 read?
Its IC50 is 32 nM.

Which IC50 does the source give for `CO[C@H]1CCN(C)[C@@H]1[C@H](C)Oc1nc(-c2onc3c2CCC[C@@]32CCCc3sc(N)c(C#N)c32)nc2c1n(C)c(=O)n2[C@@H]1CCCOC1` [I-6] here?
The IC50 was 90 nM.

System: not listed separately
Experiment: Solubility measurement (DMSO solution precipitation method)
Assay type: physicochemical
Conditions: aqueous buffer, kinetic from dmso stock, McIlvaine buffer pH 4.5, 24 h, read-out: solubility pH 4.5
Description: A 10 mM DMSO stock solution of a test compound is used to determine its aq. solubility. The DMSO solution is diluted with an aq. medium (McIlvaine buffer with pH=4.5 or 6.8) to a final concentration of 250 μM. After 24 h of shaking at ambient temperature a potentially formed precipitate is removed by filtration. The concentration of the test compound in the filtrate is determined by LC-UV methods by calibrating the signal to the signal of a reference solution with complete dissolution of the test compound in acetonitrile/water (1:1) with known concentration.

With `C[C@H](Oc1nc(-c2onc3c2CCC[C@@]32CCCc3sc(N)c(C#N)c32)nc2c1n(C)c(=O)n2C1COC1)[C@@H]1CCCN1C` [I-24] as the compound, how does the solubility at 24 h read?
Its solubility at 24 h is over 155 µg/mL.

With `CO[C@H]1C[C@@H]([C@H](C)Oc2nc(-c3onc4c3CCC[C@@]43CCCc4sc(N)c(C#N)c43)nc3c2n(C)c(=O)n3[C@@H]2CCOC2)N(C)C1` [I-2] as the compound, how does the solubility at 24 h read?
The solubility at 24 h was over 159 µg/mL.

For `C[C@H](Oc1nc(-c2onc3c2CCC[C@@]32CCCc3sc(N)c(C#N)c32)nc2c1N(C)C(=O)CN2[C@@H]1CCOC1)[C@@H]1CCCN1C` [I-37], which solubility at 24 h is on record?
Its solubility at 24 h is over 151 µg/mL.

For `C[C@H](Oc1nc(-c2onc3c2CCC[C@@]32CCCc3sc(N)c(C#N)c32)nc2c1n(C)c(=O)n2[C@H]1CCCOC1)[C@@H]1CCCN1C` [I-11], which solubility at 24 h is on record?
The solubility at 24 h was over 149 µg/mL.

Which solubility at 24 h does the source give for `C[C@H](Oc1nc(-c2onc3c2CCC[C@@]32CCCc3sc(N)c(C#N)c32)nc2c1ncn2[C@@H]1CCOC1)[C@@H]1CCCN1C` [I-38] here?
Its solubility at 24 h is over 144 µg/mL.

With `CO[C@H]1CCN(C)[C@@H]1[C@H](C)Oc1nc(-c2onc3c2CCC[C@@]32CCCc3sc(N)c(C#N)c32)nc2c1n(C)c(=O)n2[C@@H]1CCCOC1` [I-6] as the compound, how does the solubility at 24 h read?
The solubility at 24 h was over 164 µg/mL.

Same assay, conditions: aqueous buffer, kinetic from dmso stock, McIlvaine buffer pH 6.8, 24 h, read-out: solubility pH 6.8

For `C[C@H](Oc1nc(-c2onc3c2CCC[C@@]32CCCc3sc(N)c(C#N)c32)nc2c1n(C)c(=O)n2C1COC1)[C@@H]1CCCN1C` [I-24], which solubility at 24 h is on record?
Its solubility at 24 h is over 140 µg/mL.

With `CO[C@H]1C[C@@H]([C@H](C)Oc2nc(-c3onc4c3CCC[C@@]43CCCc4sc(N)c(C#N)c43)nc3c2n(C)c(=O)n3[C@@H]2CCOC2)N(C)C1` [I-2] as the compound, how does the solubility at 24 h read?
The solubility at 24 h was 115 µg/mL (≈ 174 µM).

With `C[C@H](Oc1nc(-c2onc3c2CCC[C@@]32CCCc3sc(N)c(C#N)c32)nc2c1N(C)C(=O)CN2[C@@H]1CCOC1)[C@@H]1CCCN1C` [I-37] as the compound, how does the solubility at 24 h read?
The solubility at 24 h was 113 µg/mL (≈ 175 µM).

For `C[C@H](Oc1nc(-c2onc3c2CCC[C@@]32CCCc3sc(N)c(C#N)c32)nc2c1n(C)c(=O)n2[C@H]1CCCOC1)[C@@H]1CCCN1C` [I-11], which solubility at 24 h is on record?
The solubility at 24 h was 99 µg/mL (≈ 154 µM).

With `C[C@H](Oc1nc(-c2onc3c2CCC[C@@]32CCCc3sc(N)c(C#N)c32)nc2c1ncn2[C@@H]1CCOC1)[C@@H]1CCCN1C` [I-38] as the compound, how does the solubility at 24 h read?
Its solubility at 24 h is over 139 µg/mL.

Which solubility at 24 h does the source give for `CO[C@H]1CCN(C)[C@@H]1[C@H](C)Oc1nc(-c2onc3c2CCC[C@@]32CCCc3sc(N)c(C#N)c32)nc2c1n(C)c(=O)n2[C@@H]1CCCOC1` [I-6] here?
Its solubility at 24 h is under 1 µg/mL.

Source: patent publication US20250019385A1, “SPIROCYCLIC ANNULATED 2-AMINO-3-CYANO THIOPHENES AND DERIVATIVES FOR THE TREATMENT OF CANCER” (Boehringer Ingelheim International GmbH, priority 2023, published 2025)
